Each block holds one compound with its values, some of them ahead of it.
Tests used:
HLA-B08.01 = HLA-B08.01 (Homo sapiens, UniProt P01889, A93T/A95T/D138N/E176V/E187T/K202T/Q94N/R180D/S35A/V36M/Y33D/Y91F); assay: Class I MHC peptide binding stability (pMHC-I dissociation, 125I-labeled light chain); conditions: Allele B08.01
HLA-B07.02 = HLA-B07.02 (Homo sapiens, UniProt P01889); assay: as above; parameters: made in house; host or cells: E. coli; conditions: Allele B07.02
HLA-A01.01 [1] = molecular target: T1, HLA-A01.01 (Homo sapiens, UniProt P04439, A114D/A174V/A182V/D101N/E190D/Q94H/R68K/S129P/V100A/V91M/W191G); assay: as above; conditions: BTK C481S peptide; HLA Allele A01.01
T1 construct: made in house; host or cells: E. coli

HLA-A11.01 [2] = molecular target: HLA-A11.01 (Homo sapiens, UniProt P04439, A114D/D185E/E176A/F33Y/L180Q/S129P/T187R); assay: Class I MHC peptide binding affinity (displacement of radiolabeled reference peptide)
HLA-A03.01 [3] = molecular target: T2, HLA-A03.01 (Homo sapiens, UniProt P04439); assay: Class I MHC peptide binding stability (pMHC-I dissociation, 125I-labeled light chain); parameters: made in house; host or cells: E. coli; conditions: HLA Allele A03.01; for Measured stability: time for half of the complexes to dissociate at 37° C.
HLA-A01.01 [4] = molecular target: HLA-A01.01 (Homo sapiens, UniProt P04439, A114D/A174V/A182V/D101N/D185E/E176A/E190D/L180R/Q94H/R68K/S129P/T187R/V100A/V91M/W191G); assay: Class I MHC peptide binding affinity (displacement of radiolabeled reference peptide)
Summary of the method: (§1)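 Read-out: radioactivity of reference peptide retained on MHCI, separated from free label by gel-filtration size exclusion. Competing peptides are titrated against the preformed complexes and incubated two days beforehand.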

HLA-A03.01 [5] = molecular target: T2, HLA-A03.01; assay: as above
HLA-A02.01 [6] = molecular target: T3, HLA-A02.01 (Homo sapiens, UniProt P04439, D140Y/D185E/D98H/E176V/E277Q/G131W/G231S/I119V/I121R/I166T/I218V/N151K/N90K/P208A/P217A/Q86G/Q94H/R138H/R169H); assay: Class I MHC peptide binding stability (pMHC-I dissociation, 125I-labeled light chain); conditions: allele A02.01
T3 construct: made in house; host or cells: E. coli

HLA-A11.01 [7] = molecular target: T4, HLA-A11.01 (Homo sapiens, UniProt P04439, A114D/F33Y/S129P); assay: as above; conditions: HLA Allele A11.01; time for half of the complexes to dissociate at 37° C.
T4 construct: made in house; host or cells: E. coli

HLA-A02.01 [8] = molecular target: HLA-A02.01 (Homo sapiens, UniProt P04439, D140Y/D185E/D98H/E176V/E277Q/G131W/G231S/I119V/I121R/I166T/I218V/L300P/L318F/N151K/N90K/P208A/P217A/Q86G/Q94H/R138H/R169H/T345S); assay: Class I MHC peptide binding affinity (displacement of radiolabeled reference peptide); conditions: allele A02.01; read-out: Observed Affinity (IC50; (nM))
Summary of the method: as §1

SMILES: CSCC[C@H](NC(=O)[C@H](Cc1c[nH]c2ccccc12)NC(=O)[C@H](Cc1c[nH]cn1)NC(=O)[C@H](CC(N)=O)NC(=O)[C@H](CCCNC(=N)N)NC(=O)[C@H](CCCNC(=N)N)NC(=O)[C@H](CCC(N)=O)NC(=O)[C@H](CO)NC(=O)[C@@H]1CCCN1C(=O)[C@@H](N)CC(C)C)C(=O)O
Stability (T1/2 (h)) (HLA-B08.01): 0.7 h
Stability (T1/2 (h)) (HLA-B07.02): 6.5 h

SMILES: CSCC[C@H](N)C(=O)N[C@@H](C)C(=O)N[C@@H](CC(N)=O)C(=O)NCC(=O)N[C@@H](CO)C(=O)N[C@@H](CC(C)C)C(=O)N[C@@H](CC(C)C)C(=O)N[C@@H](CC(N)=O)C(=O)N[C@@H](Cc1ccc(O)cc1)C(=O)O
Stability (half-life (hr.)) (HLA-A01.01 [1]): 12.98 min
IC50 (HLA-A11.01 [2]): 536 nM
Stability (half-life (hr.)) (HLA-A03.01 [3]; BTK C481S peptide): 14.3 min
IC50 (HLA-A01.01 [4]; Affinity (nM), BTK C481S peptide, HLA Allele A01.01): 439 nM
IC50 (HLA-A01.01 [4]; Observed Affinity (IC50, (nM)), allele A01.01): 439 nM
IC50 (HLA-A03.01 [5]; Affinity (nM), BTK C481S peptide, HLA Allele A03.01): 35.6 nM
IC50 (HLA-A03.01 [5]; Observed Affinity (IC50, (nM)), allele A03.01): 35.6 nM

SMILES: CC(C)C[C@H](NC(=O)[C@@H]1CCCN1C(=O)[C@H](CS)NC(=O)[C@H](CC(C)C)NC(=O)[C@H](Cc1c[nH]cn1)NC(=O)[C@H](CC(N)=O)NC(=O)CNC(=O)[C@H](CC(C)C)NC(=O)[C@@H](N)CO)C(=O)O
Stability (T1/2 (h)) (HLA-B08.01): 0.5 h
Stability (T1/2 (h)) (HLA-A02.01 [6]): 3.5 h

SMILES: CC(C)[C@H](N)C(=O)N[C@H](C(=O)NCC(=O)N[C@@H](C)C(=O)N[C@@H](CS)C(=O)NCC(=O)N[C@H](C(=O)NCC(=O)N[C@@H](CCCCN)C(=O)O)C(C)C)C(C)C
Measured stability (HLA-A11.01 [7]): 10.0 h
Measured stability (HLA-A03.01 [3]): 5.0 h

SMILES: CC(C)[C@H](N)C(=O)N[C@H](C(=O)NCC(=O)N[C@@H](C)C(=O)N[C@@H](CC(=O)O)C(=O)NCC(=O)N[C@H](C(=O)NCC(=O)N[C@@H](CCCCN)C(=O)O)C(C)C)C(C)C
Measured stability (HLA-A11.01 [7]): 3.4 h

SMILES: CC(C)[C@H](N)C(=O)N[C@H](C(=O)N[C@H](C(=O)NCC(=O)N[C@@H](C)C(=O)N[C@@H](CC(=O)O)C(=O)NCC(=O)N[C@H](C(=O)NCC(=O)N[C@@H](CCCCN)C(=O)O)C(C)C)C(C)C)C(C)C
Measured stability (HLA-A11.01 [7]): 13.0 h
Measured stability (HLA-A03.01 [3]): 2.3 h

Stability (T1/2 (h)) (HLA-B08.01): 0.4 h
Stability (T1/2 (h)) (HLA-A02.01 [6]): 0.6 h
SMILES: CC[C@H](C)[C@H](NC(=O)[C@H](CCCCN)NC(=O)[C@H](CO)NC(=O)[C@H](CCC(=O)O)NC(=O)[C@H](C)NC(=O)[C@H](CCCCN)NC(=O)[C@H](CC(C)C)NC(=O)[C@H](Cc1ccccc1)NC(=O)[C@H](CCSC)NC(=O)[C@@H](N)Cc1ccc(O)cc1)C(=O)O

SMILES: CSCC[C@H](NC(=O)[C@@H](NC(=O)[C@H](Cc1ccc(O)cc1)NC(=O)[C@H](C)NC(=O)[C@H](CCSC)NC(=O)[C@@H](NC(=O)[C@@H](N)Cc1ccc(O)cc1)C(C)C)C(C)C)C(=O)N[C@@H](C)C(=O)NCC(=O)O
Stability (T1/2 (h)) (HLA-B08.01): 1.2 h
Stability (T1/2 (h)) (HLA-A02.01 [6]): 2.5 h
IC50 (HLA-A02.01 [8]): 11500 nM
